Experimental data taken from US6242601A, “Heterocyclic sulfamides” (Hoffman-La Roche Inc., priority 1999, dated 2001).
pIC50: −log10 of the molar value.

Columns and labels:
[1] = target: T1, isolated rat aorta rings (Rattus norvegicus, UniProt P26684); experiment: Inhibition of endothelin-induced contractions in isolated rat aorta rings; parameters: species or system adult Wistar-Kyoto rats; conditions: rat aorta rings without endothelium, 37° C.; endothelin-1 cumulative; from dose ratio; read-out: pA2 (converted)
T1 construct: Rings with a length of 5 mm were cut out from the thorax aorta of adult Wistar-Kyoto rats; from tissue; host or cells: thoracic aorta of adult Wistar-Kyoto rats, endothelium removed
T1 sequence (P26684 21-426): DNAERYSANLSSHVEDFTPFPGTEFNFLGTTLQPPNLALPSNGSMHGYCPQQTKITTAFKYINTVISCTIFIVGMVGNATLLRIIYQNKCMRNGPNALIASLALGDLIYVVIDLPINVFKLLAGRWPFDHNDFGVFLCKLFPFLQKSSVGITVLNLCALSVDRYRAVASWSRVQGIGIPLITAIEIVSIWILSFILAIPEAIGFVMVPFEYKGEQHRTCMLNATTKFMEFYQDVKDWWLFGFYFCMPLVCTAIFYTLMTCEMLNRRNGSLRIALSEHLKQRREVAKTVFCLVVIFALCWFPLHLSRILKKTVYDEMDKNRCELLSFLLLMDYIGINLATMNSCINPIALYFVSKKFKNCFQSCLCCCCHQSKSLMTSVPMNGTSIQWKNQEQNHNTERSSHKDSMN
Procedure: Rings with a length of 5 mm were cut out from the thorax aorta of adult Wistar-Kyoto rats. The endothelium was removed by lightly rubbing the internal surface. Each ring was immersed at 37° C. in 10 ml of Krebs-Henseleit solution in an isolated bath while gassing with 95% O2 and 5% CO2. The isometric stretching of the rings was measured. The rings were stretched to a pre-tension of 3 g.
The corresponding pA2 value, which is a measure of the activity of the test compound, was calculated using a computer programme according to the following equation from the "dose ratio" DR for each individual dosage-activity curve.
pA2 =log(DR-1)-log(antagonist-concentration)

[2] = target: T2, recombinant human ETA receptors (Homo sapiens, UniProt P25101); experiment: Inhibition of endothelin binding on recombinant human ETA receptors expressed in CHO cells ([125I]ET-1, whole attached cells); parameters: expressed in transfected cells; host or cells: CHO cells; conditions: 35 pM [125I]ET-1, 2 h, 22° C.
T2 sequence (P25101 21-427): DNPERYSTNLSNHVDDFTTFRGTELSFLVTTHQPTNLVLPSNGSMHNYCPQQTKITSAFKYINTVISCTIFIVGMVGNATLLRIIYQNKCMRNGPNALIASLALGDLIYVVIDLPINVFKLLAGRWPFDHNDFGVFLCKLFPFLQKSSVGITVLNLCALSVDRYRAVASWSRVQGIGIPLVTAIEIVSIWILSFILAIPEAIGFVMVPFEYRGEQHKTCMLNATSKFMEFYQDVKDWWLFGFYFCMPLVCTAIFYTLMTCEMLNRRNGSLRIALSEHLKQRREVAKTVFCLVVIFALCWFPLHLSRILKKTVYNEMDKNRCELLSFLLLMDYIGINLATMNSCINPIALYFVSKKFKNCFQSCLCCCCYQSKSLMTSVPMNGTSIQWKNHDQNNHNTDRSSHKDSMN
Procedure: II. […] Cell culture. CHO cells, expressing recombinant human ETA receptor are grown in Minimal Essential Alpha Medium (Gibco Laboratories, Paisley, Scotland) supplemented with 0.1 μM methotrexate, 5% dialyzed fetal calf serum, 100 U/ml of penicillin and 100 μg/ml of streptomycin. Binding assays with whole attached cells are performed in 500 μl Dulbecco's Eagle medium (DMEM) containing 2 mg/ml bovine serum albumin and 25 mM Hepes. After incubation (2 h, 22° C.) in the presence of 35 pM [^125 I]ET-1 and increasing concentrations of various antagonists, the cells are extensively washed and finally solubilized in 1% (w/v) SDS, 0.5 M NaOH and 100 mM EDTA. Each assay is performed three times in triplicates and non specific binding is assessed in the presence of 100 nM unlabelled ET-1. Specific binding is defined as the difference between total binding and non specific binding. IC50 values are determined after logit/log transformation of the binding data.

[3] = Pharmacokinetics of the endothelin receptor antagonists after oral gavage in rats; format: in vivo; conditions: rat, plasma, 5 mg/kg in DMSO, Wistar rats, bioassay; for AUC: read-out: Area under the plasma concentration time curve; for Cmax: read-out: Peak concentration in rat plasma
Procedure: IV. […] The test compounds were dissolved in DMSO at a concentration of 5 mg/mL and administered orally by gavage at a dose of 1 mL/kg body weight corresponding to 5 mg/kg body weight. Two rats were administered per test compound. Blood samples were collected from the retro-orbital sinus at 1 and 5 h post dose in one rat, and at 3 and 7 h post dose in the other rat. In addition a terminal 24 h blood sample was collected from both rats by heart puncture. Blood was collected on EDTA-NaF. Plasma was derived by centrifugation at 2000 g at +4° C. for 15 min. Plasma samples were assayed for active drug related material with a bioassay, based on the binding competition of tested compounds and ^125 I ET-1 on recombinant ETA receptors. Quantitation of plasma samples was by comparison to a calibration curve build up from control rat plasma spiked with known concentrations of the test compounds.

SMILES | Kb [1] [nM] | pIC50 [2] | AUC [3] [ng·h/mL] | Cmax [3] [ng/mL]
COc1ccccc1Oc1c(NS(=O)(=O)c2ccc(C)cn2)nc(-c2cccc(O)c2)nc1OC [Example 1, 5-methyl-pyridine-2-sulfonic acid [2-(3-hydroxy-phenyl)-6-methoxy-5-(2-methoxy-phenoxy)-pyrimidin-4-yl]-amide] | ≤ 6.31 | ≥ 8.00 |  | 
COc1ccccc1Oc1c(NS(=O)(=O)c2ccc(C)cn2)nc(-c2cccc(OCCO)c2)nc1OC [Example 7, 5-methyl-pyridine-2-sulfonic acid [2-[3-(2-hydroxy-ethoxy)-phenyl]-6-methoxy-5-(2-methoxy-phenoxy)-pyrimidin-4-yl]-amide] | ≤ 6.31 | ≥ 8.00 | ≥ 10000 | ≥ 1500
COc1ccccc1Oc1c(NS(=O)(=O)c2ccc(C)cn2)nc(-c2ccnc(C(=O)O)c2)nc1OC [Example 21, 4-[4-methoxy-5-(2-methoxy-phenoxy)-6-(5-methyl-pyridine-2-sulfonylamino)-pyrimidin-2-yl]-pyridine-2-carboxylic acid] | ≤ 6.31 | ≥ 8.00 |  | 
CCOC(=O)c1cc(-c2nc(NS(=O)(=O)c3ccc(C)cn3)c(Oc3ccccc3OC)c(OC)n2)ccn1 [Example 23, 4-[4-methoxy-5-(2-methoxy-phenoxy)-6-(5-methyl-pyridine-2-sulfonylamino)-pyrimidin-2-yl]-pyridine-2-carboxylic acid ethyl ester] | ≤ 6.31 | ≥ 8.00 |  | 

Now from value to compound:

Kb [1] [nM] | pIC50 [2] | AUC [3] [ng·h/mL] | Cmax [3] [ng/mL] | SMILES
≤ 6.31 | ≥ 8.00 |  |  | COc1ccccc1Oc1c(NS(=O)(=O)c2ccc(C(C)C)cn2)nc(-c2ccnc(C(=N)NO)c2)nc1OC [Example 55, N-hydroxy-4-[4-(5-isopropyl-pyridine-2-sulfonylamino)-6-methoxy-5-(2-methoxy-phenoxy)-pyrimidin-2-yl]-pyridine-2-carboxamidine]
≤ 6.31 |  | ≥ 10000 | ≥ 1500 | COc1ccccc1Oc1c(NS(=O)(=O)c2ccc(C)cn2)nc(-c2ccnc(-c3noc(C)n3)c2)nc1OC [Example 35, 5-methyl-pyridine-2-sulfonic acid {6-methoxy-5-(2-methoxy-phenoxy)-2-[2-(5-methyl-[1,2,4]oxadiazol-3-yl)-pyridin-4-yl]-pyrimidin-4-yl}-amide]
≤ 6.31 |  | ≥ 10000 | ≥ 1500 | COc1ccccc1Oc1c(NS(=O)(=O)c2ccc(C(C)C)cn2)nc(-c2ccnc(CNC(C)=O)c2)nc1OC [Example 52, N-{4-[4-(5-isopropyl-pyridine-2-sulfonylamino)-6-methoxy-5-(2-methoxy-phenoxy)-pyrimidin-2-yl]-pyridin-2-ylmethyl}-acetamide]
